The supplement of paper PMC11150407

compound: CC(C)[C@H](C(=O)Nc1ccc(C(=O)NO)cc1)c1ccccc1 [AR-42]; assay: area under dose-response viability curve (log dose) (AUC (arbitrary)); higher = less sensitive; details: 72 h
Procedure: (§1)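 Primary AML blasts from patients (3q26 EVI1-high and other AML) were treated for 72 h with a dose series of each drug. Viability was measured with an ATP-based CellTiter-Glo assay. The area under the curve of the log-transformed dose-response data was computed in GraphPad Prism; a lower AUC means greater sensitivity.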

Row | Test System | area under dose-response viability curve
1 | PR#002 (EVI1 status: EVI1High) | 132
2 | PR#003 (EVI1 status: EVI1High) | 112
3 | PR#004 (EVI1 status: EVI1High) | 78.8
4 | PR#005 (EVI1 status: EVI1High) | 156
5 | PR#006 (EVI1 status: EVI1High) | 120
6 | PR#007 (EVI1 status: EVI1High) | 163
7 | PR#008 (EVI1 status: EVI1High) | 55.7
8 | PR#010 (EVI1 status: EVI1Low) | 121
9 | PR#011 (EVI1 status: EVI1Low) | 188
10 | PR#012 (EVI1 status: EVI1Low) | 131
11 | PR#013 (EVI1 status: EVI1Low) | 130
12 | PR#014 (EVI1 status: EVI1Low) | 128
13 | PR#015 (EVI1 status: EVI1Low) | 149
14 | PR#016 (EVI1 status: EVI1Low) | 148
15 | PR#017 (EVI1 status: EVI1Low) | 163
16 | PR#018 (EVI1 status: EVI1Low) | 184

Row | Test System | area under dose-response viability curve
17 | PR#019 (EVI1 status: EVI1Low) | 208
18 | PR#020 (EVI1 status: EVI1Low) | 130
19 | PR#021 (EVI1 status: EVI1Low) | 189
20 | PR#022 (EVI1 status: EVI1Low) | 140
21 | PR#023 (EVI1 status: EVI1High) | 139
22 | PR#024 (EVI1 status: EVI1High) | 106
23 | PR#025 (EVI1 status: EVI1Low) | 178
24 | PR#026 (EVI1 status: EVI1Low) | 155
25 | PR#027 (EVI1 status: EVI1Low) | 158
26 | PR#028 (EVI1 status: EVI1Low) | 164
27 | PR#029 (EVI1 status: EVI1Low) | 167
28 | PR#030 (EVI1 status: EVI1Low) | 158
29 | PR#031 (EVI1 status: EVI1Low) | 189
30 | PR#032 (EVI1 status: EVI1Low) | 170
31 | PR#033 (EVI1 status: EVI1Low) | 154
32 | PR#034 (EVI1 status: EVI1Low) | 142

compound: CC[C@]1(O)C[C@H]2CN(CCc3c([nH]c4ccccc34)[C@@](C(=O)OC)(c3cc4c(cc3OC)N(C=O)[C@H]3[C@@](O)(C(=O)OC)[C@H](OC(C)=O)[C@]5(CC)C=CCN6CC[C@]43[C@@H]65)C2)C1 [Vincristine]; assay: as above; details: 72 h
Procedure: as §1

Row | Test System | area under dose-response viability curve
33 | PR#002 (EVI1 status: EVI1High) | 179
34 | PR#003 (EVI1 status: EVI1High) | 162
35 | PR#004 (EVI1 status: EVI1High) | 171
36 | PR#005 (EVI1 status: EVI1High) | 156
37 | PR#006 (EVI1 status: EVI1High) | 136
38 | PR#007 (EVI1 status: EVI1High) | 186
39 | PR#008 (EVI1 status: EVI1High) | 116
40 | PR#010 (EVI1 status: EVI1Low) | 172
41 | PR#011 (EVI1 status: EVI1Low) | 196
42 | PR#012 (EVI1 status: EVI1Low) | 89.8
43 | PR#013 (EVI1 status: EVI1Low) | 193
44 | PR#014 (EVI1 status: EVI1Low) | 198
45 | PR#015 (EVI1 status: EVI1Low) | 128
46 | PR#016 (EVI1 status: EVI1Low) | 152
47 | PR#017 (EVI1 status: EVI1Low) | 204
48 | PR#018 (EVI1 status: EVI1Low) | 204

Row | Test System | area under dose-response viability curve
49 | PR#019 (EVI1 status: EVI1Low) | 203
50 | PR#020 (EVI1 status: EVI1Low) | 128
51 | PR#021 (EVI1 status: EVI1Low) | 195
52 | PR#022 (EVI1 status: EVI1Low) | 175
53 | PR#023 (EVI1 status: EVI1High) | 140
54 | PR#024 (EVI1 status: EVI1High) | 97
55 | PR#025 (EVI1 status: EVI1Low) | 214
56 | PR#026 (EVI1 status: EVI1Low) | 90.2
57 | PR#027 (EVI1 status: EVI1Low) | 186
58 | PR#028 (EVI1 status: EVI1Low) | 116
59 | PR#029 (EVI1 status: EVI1Low) | 46.3
60 | PR#030 (EVI1 status: EVI1Low) | 147
61 | PR#031 (EVI1 status: EVI1Low) | 129
62 | PR#032 (EVI1 status: EVI1Low) | 92.1
63 | PR#033 (EVI1 status: EVI1Low) | 147
64 | PR#034 (EVI1 status: EVI1Low) | 202

compound: CN(Cc1cnc2nc(N)nc(N)c2n1)c1ccc(C(=O)N[C@@H](CCC(=O)O)C(=O)O)cc1 [Methotrexate]; assay: as above; details: 72 h
Procedure: as §1

Row | Test System | area under dose-response viability curve
65 | PR#002 (EVI1 status: EVI1High) | 232
66 | PR#003 (EVI1 status: EVI1High) | 239
67 | PR#004 (EVI1 status: EVI1High) | 237
68 | PR#005 (EVI1 status: EVI1High) | 198
69 | PR#006 (EVI1 status: EVI1High) | 248
70 | PR#007 (EVI1 status: EVI1High) | 245
71 | PR#008 (EVI1 status: EVI1High) | 195
72 | PR#010 (EVI1 status: EVI1Low) | 256
73 | PR#011 (EVI1 status: EVI1Low) | 226
74 | PR#012 (EVI1 status: EVI1Low) | 218
75 | PR#013 (EVI1 status: EVI1Low) | 233
76 | PR#014 (EVI1 status: EVI1Low) | 248
77 | PR#015 (EVI1 status: EVI1Low) | 248
78 | PR#016 (EVI1 status: EVI1Low) | 270
79 | PR#017 (EVI1 status: EVI1Low) | 237
80 | PR#018 (EVI1 status: EVI1Low) | 236

Row | Test System | area under dose-response viability curve
81 | PR#019 (EVI1 status: EVI1Low) | 245
82 | PR#020 (EVI1 status: EVI1Low) | 248
83 | PR#021 (EVI1 status: EVI1Low) | 241
84 | PR#022 (EVI1 status: EVI1Low) | 244
85 | PR#023 (EVI1 status: EVI1High) | 240
86 | PR#024 (EVI1 status: EVI1High) | 249
87 | PR#025 (EVI1 status: EVI1Low) | 247
88 | PR#026 (EVI1 status: EVI1Low) | 241
89 | PR#027 (EVI1 status: EVI1Low) | 262
90 | PR#028 (EVI1 status: EVI1Low) | 252
91 | PR#029 (EVI1 status: EVI1Low) | 229
92 | PR#030 (EVI1 status: EVI1Low) | 233
93 | PR#031 (EVI1 status: EVI1Low) | 233
94 | PR#032 (EVI1 status: EVI1Low) | 258
95 | PR#033 (EVI1 status: EVI1Low) | 226
96 | PR#034 (EVI1 status: EVI1Low) | 233
